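96-well plates; 48 h exposure; 5 concentrations. Endpoints by linear interpolation between flanking doses. Not reached: highest tested concentration assigned. GI50: concentration for 50% inhibition of growth. The concentration for full growth arrest is given as TGI.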
Tests used:
Assay in all cases: NCI-60 cell line screen, 48 h
[1] = system: SF-295 CNS
[2] = system: BT-549 breast
[3] = system: OVCAR-5 ovarian
[4] = system: MALME-3M melanoma
[5] = system: CAKI-1 renal
[6] = system: SNB-75 CNS
[7] = system: MDA-MB-435
[8] = system: HOP-92 NSCLC
[9] = system: SR leukemia
[10] = system: EKVX NSCLC
[11] = system: SF-539 CNS
[12] = system: 786-0 renal
[13] = system: NCI-H460 lung
[14] = system: HCT-15 colon
[15] = system: HL-60(TB) leukemia
[16] = system: HCC-2998 colon
[17] = system: OVCAR-8 ovarian
[18] = system: U251 CNS
[19] = system: M14 melanoma
[20] = system: RPMI-8226 leukemia
[21] = system: SN12C renal
[22] = system: HT29 colon
[23] = system: HS 578T breast
[24] = system: DU-145 prostate
[25] = system: CCRF-CEM leukemia
[26] = system: RXF 393 renal
[27] = system: A549 NSCLC
[28] = system: MOLT-4 leukemia
[29] = system: MDA-MB-231 breast
[30] = system: NCI-H226 lung
[31] = system: NCI-H23 lung
[32] = system: HCT-116 colon
[33] = system: UO-31 renal
[34] = system: PC-3 prostate
[35] = system: TK-10 renal
[36] = system: ACHN renal
[37] = system: MCF7 breast
[38] = system: T-47D breast
[39] = system: SF-268 CNS
[40] = system: OVCAR-3 ovarian
[41] = system: KM12 colon
[42] = system: LOX IMVI melanoma
[43] = system: UACC-62 melanoma
[44] = system: OVCAR-4 ovarian
[45] = system: UACC-257 melanoma
[46] = system: COLO 205 colon
[47] = system: SK-OV-3 ovarian
[48] = system: HOP-62 NSCLC
[49] = system: SNB-19 CNS
[50] = system: SW-620 colon
[51] = system: K-562 leukemia
[52] = system: NCI/ADR-RES ovarian
[53] = system: IGROV1 ovarian
[54] = system: SK-MEL-2 melanoma
[55] = system: NCI-H522 lung
[56] = system: SK-MEL-5 melanoma
[57] = system: SK-MEL-28 melanoma
[58] = system: A498 renal

## O=S(=O)(c1ccccc1)c1ccc(-c2nc(-c3ccc4c(c3)Sc3ccccc3S4)cs2)cc1
[1]
  TGI: 47.4 µM
[2]
  TGI: 91.7 µM
[3]
  TGI: > 100 µM
[4]
  TGI: > 100 µM
[5]
  TGI: > 100 µM
[6]
  TGI: 25.3 µM
[7]
  TGI: > 100 µM
[8]
  TGI: 62.9 µM
[9]
  TGI: > 100 µM
[10]
  TGI: > 100 µM
[11]
  TGI: > 100 µM
[12]
  TGI: 45.1 µM
[13]
  TGI: > 100 µM
[14]
  TGI: > 100 µM
[15]
  TGI: > 100 µM
[16]
  TGI: > 100 µM
[17]
  TGI: > 100 µM
[18]
  TGI: > 100 µM
[19]
  TGI: > 100 µM
[20]
  TGI: > 100 µM
[21]
  TGI: > 100 µM
[22]
  TGI: > 100 µM
[23]
  TGI: > 100 µM
[24]
  TGI: > 100 µM
[25]
  TGI: > 100 µM
[26]
  TGI: 35.3 µM
[27]
  TGI: > 100 µM
[28]
  TGI: > 100 µM
[29]
  TGI: > 100 µM
[30]
  TGI: > 100 µM
[31]
  TGI: 36.1 µM
[32]
  TGI: > 100 µM
[33]
  TGI: > 100 µM
[34]
  TGI: > 100 µM
[35]
  TGI: 73.6 µM
[36]
  TGI: > 100 µM
[37]
  TGI: > 100 µM
[38]
  TGI: > 100 µM
[39]
  TGI: > 100 µM
[40]
  TGI: > 100 µM
[41]
  TGI: > 100 µM
[42]
  TGI: > 100 µM
[43]
  TGI: > 100 µM
[44]
  TGI: > 100 µM
[45]
  TGI: > 100 µM
[46]
  TGI: > 100 µM
[47]
  TGI: 41.9 µM
[48]
  TGI: 45.5 µM
[49]
  TGI: > 100 µM
[50]
  TGI: > 100 µM
[51]
  TGI: > 100 µM

## CCN1C(=O)N(CC)C2C1N=C(SC)N2/N=C/C=C/c1ccccc1OC (stereo unspecified)
[1]
  GI50: 0.358 µM
  TGI: > 37.4 µM
[2]
  GI50: 0.479 µM
  TGI: 19.6 µM
[3]
  GI50: 0.63 µM
  TGI: > 54.4 µM
[4]
  GI50: 1.01 µM
  TGI: > 42.8 µM
[5]
  GI50: 0.572 µM
  TGI: > 58.3 µM
[6]
  GI50: 0.363 µM
  TGI: 52.5 µM
[8]
  GI50: 0.428 µM
  TGI: 7.31 µM
[9]
  GI50: 0.358 µM
  TGI: 13.2 µM
[52]
  GI50: 0.329 µM
[10]
  GI50: 0.581 µM
  TGI: > 56.6 µM
[11]
  GI50: 0.315 µM
  TGI: 1.69 µM
[12]
  GI50: 0.538 µM
  TGI: 31.7 µM
[13]
  GI50: 0.341 µM
  TGI: > 34.3 µM
[14]
  GI50: 0.37 µM
  TGI: > 35.7 µM
[15]
  GI50: 0.289 µM
  TGI: 1.09 µM
[16]
  GI50: 0.413 µM
  TGI: > 41.1 µM
[17]
  GI50: 0.438 µM
  TGI: > 45 µM
[18]
  GI50: 0.411 µM
  TGI: > 33.1 µM
[19]
  GI50: 0.33 µM
  TGI: > 37.4 µM
[20]
  GI50: 0.37 µM
  TGI: 3.31 µM
[21]
  GI50: 0.512 µM
  TGI: > 43.5 µM
[22]
  GI50: 0.357 µM
[23]
  GI50: 0.422 µM
  TGI: > 56.4 µM
[24]
  GI50: 0.428 µM
  TGI: > 45.3 µM
[25]
  GI50: 0.379 µM
  TGI: > 48.2 µM
[26]
  GI50: 0.376 µM
  TGI: 35.3 µM
[53]
  GI50: 0.618 µM
  TGI: > 45.1 µM
[27]
  GI50: 0.469 µM
  TGI: > 47.8 µM
[54]
  GI50: 1.2 µM
  TGI: > 39.3 µM
[55]
  GI50: 0.308 µM
[28]
  GI50: 0.457 µM
  TGI: > 46.1 µM
[29]
  GI50: 0.348 µM
  TGI: 10.8 µM
[30]
  GI50: 2.14 µM
  TGI: > 52.3 µM
[31]
  GI50: 0.51 µM
  TGI: > 38.8 µM
[32]
  GI50: 0.375 µM
  TGI: 24.8 µM
[33]
  GI50: 0.821 µM
  TGI: > 47.3 µM
[34]
  GI50: 0.47 µM
  TGI: > 45.3 µM
[56]
  GI50: 0.365 µM
  TGI: 1.51 µM
[35]
  GI50: 1.09 µM
  TGI: > 58.7 µM
[36]
  GI50: 0.724 µM
  TGI: > 49.3 µM
[37]
  GI50: 0.421 µM
  TGI: > 39.4 µM
[38]
  GI50: > 32.8 µM
  TGI: > 58.8 µM
[39]
  GI50: 0.877 µM
  TGI: > 57.7 µM
[40]
  GI50: 0.375 µM
  TGI: > 54.2 µM
[41]
  GI50: 0.404 µM
  TGI: > 39.6 µM
[42]
  GI50: 0.564 µM
  TGI: > 36.7 µM
[57]
  GI50: > 32.1 µM
  TGI: > 50.3 µM
[43]
  GI50: 0.492 µM
  TGI: > 40.4 µM
[44]
  GI50: 1.55 µM
  TGI: > 81.5 µM
[58]
  GI50: 0.285 µM
  TGI: 1.9 µM
[45]
  GI50: > 32.9 µM
  TGI: > 58 µM
[46]
  GI50: 0.324 µM
[47]
  GI50: 0.743 µM
  TGI: > 59.5 µM
[48]
  GI50: 0.55 µM
  TGI: > 45 µM
[49]
  GI50: 0.492 µM
  TGI: > 39 µM
[50]
  GI50: 0.412 µM
  TGI: > 100 µM
[51]
  GI50: 0.361 µM
  TGI: > 42.8 µM

— PubChem BioAssay (NCI)
